In the NIST ThermoML archive (doi:10.1016/j.jct.2014.09.011):

Assay: mn = molality of the nth substance listed, in mol/kg
Conditions: 101.3 kPa, Liquid; for speed of sound: Frequency=2 MHz, Linear variable-path acoustic interferometer; for mass density: Pycnometric method

C=C[C@H]1CN2CC[C@H]1C[C@H]2[C@H](O)c1ccnc2ccc(OC)cc12.Cl [quinine hydrochloride] + O
Conditions | mass density [kg/m3] | speed of sound [m/s]
278.15 K, m1 = 0.0127 | 1001.09 | 1429.3
278.15 K, m1 = 0.0177 | 1001.51 | 1430.5
278.15 K, m1 = 0.0225 | 1001.92 | 1431.7
278.15 K, m1 = 0.0287 | 1002.46 | 1433.3
278.15 K, m1 = 0.0332 | 1002.86 | 1434.4
278.15 K, m1 = 0.0402 | 1003.44 | 1436.2
278.15 K, m1 = 0.048 | 1004.11 | 1438.1
278.15 K, m1 = 0.0603 | 1005.15 | 1441.1
278.15 K, m1 = 0.0653 | 1005.57 | 1442.4
278.15 K, m1 = 0.0698 | 1005.93 | 1443.5
278.15 K, m1 = 0.0798 | 1006.76 | 1446
278.15 K, m1 = 0.09 | 1007.59 | 1448.5
278.15 K, m1 = 0.0987 | 1008.29 | 1450.7
288.15 K, m1 = 0.0106 | 1000.01 | 1468.3
288.15 K, m1 = 0.0163 | 1000.5 | 1469.6
288.15 K, m1 = 0.022 | 1000.99 | 1470.9
288.15 K, m1 = 0.0294 | 1001.64 | 1472.5
288.15 K, m1 = 0.0361 | 1002.19 | 1474
288.15 K, m1 = 0.0396 | 1002.48 | 1474.8
288.15 K, m1 = 0.0491 | 1003.28 | 1477
288.15 K, m1 = 0.0552 | 1003.79 | 1478.3
288.15 K, m1 = 0.0598 | 1004.17 | 1479.3
288.15 K, m1 = 0.0687 | 1004.9 | 1481.4
288.15 K, m1 = 0.0785 | 1005.7 | 1483.6
288.15 K, m1 = 0.0881 | 1006.49 | 1485.7
288.15 K, m1 = 0.1019 | 1007.59 | 1488.8
298.15 K, m1 = 0.0109 | 997.96 | 1499.2
298.15 K, m1 = 0.0125 | 998.1 | 1499.4
298.15 K, m1 = 0.0199 | 998.7 | 1501.1
298.15 K, m1 = 0.0248 | 999.09 | 1502.2
298.15 K, m1 = 0.0286 | 999.45 | 1502.9
298.15 K, m1 = 0.0378 | 1000.17 | 1504.9
298.15 K, m1 = 0.0473 | 1000.94 | 1506.9
298.15 K, m1 = 0.0544 | 1001.52 | 1508.5
298.15 K, m1 = 0.0594 | 1001.93 | 1509.4
298.15 K, m1 = 0.0677 | 1002.6 | 1511.4
298.15 K, m1 = 0.0785 | 1003.46 | 1513.7
298.15 K, m1 = 0.0881 | 1004.22 | 1515.8
298.15 K, m1 = 0.0987 | 1005.05 | 1518.1

O [water] + C=C[C@H]1CN2CC[C@H]1C[C@H]2[C@H](O)c1ccnc2ccc(OC)cc12.Cl
278.15 K, m2 = 0
Conditions | mass density [kg/m3] | speed of sound [m/s]
– | 999.96 | 1426.2

O [water] + Cl.N=C(N)N
278.15 K, m2 = 0
Conditions | mass density [kg/m3] | speed of sound [m/s]
– | 999.96 | 1426.2

O [water] + O=C(O)[C@]1(O)C[C@@H](O)[C@@H](O)[C@H](O)C1
278.15 K, m2 = 0
Conditions | mass density [kg/m3] | speed of sound [m/s]
– | 999.96 | 1426.2
